{
  "source": "patent US20180086749A1",
  "about": "“INHIBITORS OF VIRUSES” (priority 2015, published 2018)",
  "key": {"CHIKV (S27 strain)": {"tested_on": "CHIKV (S27 strain)", "assay": "CHIKV (S27 strain) CPE assay", "assay_type": "cell-based, Chikungunya virus"}, "HIV-1": {"tested_on": "HIV-1", "assay": "HIV-1 viral infectivity assay (TZM-bl)", "assay_type": "cell-based", "design": "reduction in viral infectivity: dose or concentration left out as unconfirmed"}, "Influenza virus A (H1N1)": {"tested_on": "Influenza virus A (H1N1)", "assay_type": "cell-based"}, "WEEV": {"tested_on": "WEEV", "assay": "cells", "assay_type": "cell-based, West equine encephalitis virus California"}, "[1]": {"tested_on": "IFN α/β in HEK 293T culture supernatant", "assay_type": "cell-based, human", "conditions": "18 hours"}},
  "data": [
    {"molecule": "CN(C(=O)Cc1sccc1F)c1nc2c(s1)CCCC2", "note": "[ML416, 2-(3-fluorothiophen-2-yl)-N-methyl-N-(4,5,6,7-tetrahydro-1,3-benzothiazol-2-yl)acetamide]", "values": [
      {"measurement": "EC50", "setting": "CHIKV (S27 strain); Chikungunya virus", "result": 290, "unit": "nM"},
      {"measurement": "inhibition of CHIKV-induced cytopathic effect", "setting": "CHIKV (S27 strain); in words", "result": "in the nanomolar range"},
      {"measurement": "inhibition at 10 µM", "setting": "HIV-1; Human immunodeficiency virus 1, TZM-bl, read-out: inhibition at 10 μM", "result": 94, "unit": "%"},
      {"measurement": "reduction in viral infectivity", "setting": "HIV-1; TZM-bl reporter system, luciferase", "result": 94, "unit": "%"},
      {"measurement": "Log titer inhibition at 5 μM", "setting": "Influenza virus A (H1N1)", "result": "−3.03", "unit": "Log"},
      {"measurement": "Log reduction in progeny virus titers", "setting": "Influenza virus A (H1N1); 5 μM", "result": "greater than 3 Log"},
      {"measurement": "EC50", "setting": "WEEV", "result": 960, "unit": "nM"},
      {"measurement": "IFN α/β in cell culture supernatant", "setting": "[1]", "result": "no measurable quantity of IFNs was detected"}
    ]}
  ]
}
